This note sets out measurements from patent US12522596B2, “Compounds as GLP-1R agonists” (Terns Pharmaceuticals, Inc., priority 2021, dated 2026).

Series [1] has as its system C57BL/6 mice expressing human GLP-1R (hGLP-1R). The experiment in a line: Intraperitoneal glucose tolerance test (IPGTT) in hGLP-1R mice. It counts as in vivo, mouse. Particulars: IP glucose bolus, relative to vehicle control. The method, then: The ability of compounds disclosed herein to modify the glucose tolerance of C57BL/6 mice expressing human GLP-1R (hGLP-1R), was evaluated.
The group design used in this study is described in Table 8.
Acclimation and grouping: Following a one-week washout period after in-life completion of the food intake study, mice were utilized to conduct an intraperitoneal Glucose Tolerance Test (IPGTT); mice remained in their treatment groups from study the food intake study. Baseline fasting glucose levels were used to balance treatment groups (final n=7 per treatment group); outlier mice (n=3), based on abnormal fasting blood glucose and body weight, were used for PK assessment.
Intraperitoneal Glucose Tolerance Test (IPGTT): The mice were placed clean cages with sawdust bedding and fasted overnight. Basal fasting glucose was measured by tail vein nick before dosing in the morning, 3 mice per group of abnormal fasting blood glucose and body weight were used for PK assessment. […] Blood glucose levels were measured at 0 (pre-dose), 15-, 30-, 60-, and 120-min post glucose dosing. […]
Data Processing and analysis: Manual data were transferred into an excel spreadsheet. All values are expressed as mean±S.E.M. The significances of the differences among groups and within groups were evaluated by one-way or two-way ANOVA using Graph Pad statistic software. […]

Series [2] deals with mice expressing wildtype (WT) mouse GLP-1R. The experiment in a line: Glucose tolerance in mice expressing wildtype mouse GLP-1R. The settings on record: mice expressing WT mouse GLP-1R. It counts as in vivo. The method, then: The glucose tolerance of mice expressing wildtype (WT) mouse GLP-1R was also evaluated after the administration of compound 2 using methods analogous to those described above. The glucose tolerance of mice expressing WT mouse GLP-1R was not affected by Compound 2, whereas the glucose tolerance of mice expressing human GLP-1R was improved by Compound 2 (FIGS. 9 and 10).

Series [3] is described as follows: Rat pharmacokinetics, intravenous dosing. It counts as in vivo, Sprague-Dawley rats. The settings on record: for AUC(0-t) / Cmax / clearance / half-life: male, Sprague-Dawley, rat plasma, 1 mg/kg IV (0.5 mg/mL). The method, then:
Intravenous dosing: Compounds were formulated at 0.5 mg/mL in a solution comprising 5% polyethylene glycol 400 and 95% (12% (w/v) sulfobutyl-β-cyclodextrin in water) (v/v). Formulated compounds were sterile filtered through a 0.22 micron filter before dosing. Compounds were administered to male, 7-11-week-old Sprague-Dawley rats by jugular vein cannula infusion over 30 minutes at a dose of 1 mg/kg.
Sample collection: Blood collections of about 0.2 mL per time point were performed from jugular vein or other suitable site of each animal, into pre-chilled commercial EDTA-K2 tubes and placed on wet ice until centrifugation. Blood samples were processed for plasma by centrifugation at approximately 4° C., 3,200 g for 10 min. Plasma was collected and transferred into pre-labeled 96 well plate or polypropylene tubes, quick frozen over dry ice and kept at −60° C. or lower until LC-MS/MS analysis.
Data analysis: Plasma concentration versus time data was plotted in graph and analyzed by non-compartmental approaches using the Phoenix WinNonlin 6.3 software program. Related PK parameters were calculated according to dosing route, e.g., CL, Vdss and C0 for intravenous administration, Cmax, Tmax or % F for extravascular administration, and T1/2, AUC(0-t), AUC(0-inf), MRT(0-t), MRT(0-inf) for all routes.

[4] abbreviates: rat, intravenous administration.

Entries after “also recorded” stand apart in the source; their conditions may differ.

Usually AUC(0-t) stands for exposure summed from dosing to a finite time, without extrapolation to infinity. The low end stands for low exposure, the high end for high exposure. The term Cmax denotes the highest concentration seen after dosing. For orientation: clearance means the rate of elimination divided by the concentration. Broadly, the half-life is the time needed for the level to fall by half in the phase considered. A high value points to slow loss. `N#Cc1ccc(COc2cccc(C3CCN(Cc4nc5ccc(C(=O)O)cc5n4Cc4cncs4)CC3)n2)c(F)c1` [Compound 2]: the glucose tolerance result in series [1] is on record as “significantly enhanced the glucose tolerance; also recorded: improved”. Moreover, the glucose tolerance result in series [2] is given as “not affected”. Also, in series [3], the exposure AUC(0-t) was found to be 427 ± 27.7 ng·h/mL, the peak concentration (Cmax) is 596 ± 42.3 ng/mL, the clearance was determined as 38.8 ± 2.55 mL/min/kg and the half-life was 1.57 ± 0.583 h. In series [3] (setting [4]), the “longer t1/2 as compared with Reference Compound A” value is about 2 fold and the “lower clearance as compared with Reference Compound A” value came to 30%.

For the compound `N#Cc1ccc(COc2cccc(C3CCN(Cc4nc5ccc(C(=O)O)cc5n4C[C@@H]4CCO4)CC3)n2)c(F)c1` [Reference Compound A, reference compound], in series [3], the AUC(0-t) is 325 ± 16.8 ng·h/mL, the Cmax turned out to be 486 ± 37.9 ng/mL, the clearance was determined as 51.2 ± 2.59 mL/min/kg and the half-life was 0.613 ± 0.344 h.
